Patent EP0713876A1, “Triazine derivative, chymase activity inhibitor and nitric oxide production inhibitor” (Wakamoto Pharmaceutical Co., Ltd., priority 1994, dated 1996)
Marks after values point to notes of the source that are not given here.

test system: mouse macrophage cell line, RAW264; assay: Inhibition of LPS-induced nitric oxide (NO) production, nitrite by Griess reaction; format: cell-based; conditions: 10⁻⁵ M test compound, RAW264, 1 µg/ml LPS, 36hr
Protocol: The mouse macrophage cell line, RAW264, obtained from the Riken Cell Bank, was cultured in RPMI-1640 medium without phenol red containing 10% inactivated fetal bovine serum and 100 µg/ml kanamycin at 37°C in 5% CO₂ in air. Cells were seeded into 96-well tissue culture plates (6x10⁴ cells/well) and allowed to adhere for 4 hr at 37 °C . To assess the effects of test compounds on induction of NO production, 100 µl of fresh culture medium containing them were added to the medium, followed by the additions of 1 µg/ml of LPS (E Coli 055, derived from B5 cell line, DIFCO Co.) to activate macrophage cells. At the same time, cultivation was conducted in the presence or absence of a test compound.
Since the measurement of NO is difficult due to the unstableness of NO, the nitrite ion (NO₂⁻) which is the oxidation product of NO was measured.
Productions of NO were assayed by measuring the concentrations of NO₂⁻ in culture medium by the Griess reaction by the method of Green et al. (Anal. Biochem., 126, 131-138, 1982). Nitrite accumulation in the cell culture medium was measured 36hr after LPS-stimulations. One hundred microliters of Griess reagents (1% sulfanylamide and 0.1% N-1-naphthylethylenediamine dichloride in 5% phosphoric acid) were added to 100 µl of cell culture medium at a room temperature. After 10 min, the optical densities at 550 nm (OD550) were measured by using a microplate reader.
In unstimulated RAW264 macrophages, NO₂⁻ production for 36 hr was not determined in the presence or absence of test compounds. Calculations of the inhibition% of NO production by the test compounds were carried out as depicted below. Inhibition% = (1-a/b)x100(%) [formula] a; the OD550 in presence of test compound b; the OD550 in absence of test compound IC₅₀ values were expressed as the concentrations (M) of test compounds producing 50% inhibition.

Row | Structure (SMILES) | Inhibition (%) of NO production at the concentration of 10⁻⁵ M
1 | [O-][S+](Cc1ccc(Cl)cc1)c1nnc(OCc2ccc(Cl)cc2)c2nccn12 (stereo not drawn) [Example 35, 8-(4-chlorobenzyloxy)-5-(4-chlorobenzylsulfinyl)imidazo[1,2-d][1.2.4]triazine] | 20 * %
2 | Cc1ncn2c([S+]([O-])Cc3ccc(Cl)cc3)nnc(O)c12 (stereo not drawn) [Example 33, 4-(4-chlorobenzylsulfinyl)-1-hydroxy-8-methyl imidazo [1,5-d][1.2.4]triazine] | 4 * %
3 | [O-][S+](Cc1cccc(Cl)c1)c1nnc(OCc2cccc(Cl)c2)c2nccn12 (stereo not drawn) [Example 40, 8-(3-chlorobenzyloxy)-5-(3-chlorobenzylsulfinyl)imidazo[1,2-d][1.2.4]triazine] | 32 * %
4 | N#Cc1ccc(COc2nnc([S+]([O-])Cc3ccc(C#N)cc3)n3ccnc23)cc1 (stereo not drawn) [Example 41, 8-(4-cyanobenzyloxy)-5-(4-cyanobenzylsulfinyl)imidazo[1,2-d][1.2.4]triazine] | 49 * %
5 | [O-][S+](Cc1ccc(C(F)(F)F)cc1)c1nnc(OCc2ccc(C(F)(F)F)cc2)c2nccn12 (stereo not drawn) [Example 42, 8-(4-trifluoromethylbenzyloxy)-5-(4-trifluoromethylbenzylsulfinyl)imidazo[1,2-d][1.2.4]triazine] | 8 * %
6 | [O-][S+](Cc1ccc(Cl)cc1)c1nnc(OCc2ccc(Cl)cc2)c2cccn12 (stereo not drawn) [Example 36, 1-(4-chlorobenzyloxy)-4-(4-chlorobenzylsulfinyl)pyrrolo [1,2-d][1.2.4]triazine] | 31 * %

test system: ICR mice; assay: Single-dose toxicity; format: in vivo; conditions: male ICR mice, p.o. 500 mg/kg single dose, observed for 14 days
Protocol: Ten Male ICR mice (4-week-old) were housed in each group. Test compounds were suspended in 0.5% aqueous sodium methyl cellulose, and then administered p.o. at the dose of 500 mg/kg to mice. Animals were then observed for 14 days and the mortality rate was determined. […]

Row | Structure (SMILES) | The number of death/ The number of animal
7 | [O-][S+](Cc1ccc(Cl)cc1)c1nnc(OCc2ccc(Cl)cc2)c2nccn12 (stereo not drawn) [Example 35, 8-(4-chlorobenzyloxy)-5-(4-chlorobenzylsulfinyl)imidazo[1,2-d][1.2.4]triazine] | 0/10
8 | Cc1ncn2c([S+]([O-])Cc3ccc(Cl)cc3)nn(Cc3ccc(Cl)cc3)c(=O)c12 (stereo not drawn) [Example 54, 2-(4-chlorobenzyl)-4-(4-chlorobenzylsulfinyl)-8-methyl imidazo[1,5-d][1.2.4]triazine-1(2H)-one] | 0/10
9 | [O-][S+](Cc1ccc(Cl)cc1)c1nnc(O)c2cccn12 (stereo not drawn) [Example 29, 4-(4-chlorobenzylsulfinyl)-1-hydroxypyrrolo[1,2-d][1.2.4]triazine] | 0/10
10 | Cc1ncn2c([S+]([O-])Cc3ccc(Cl)cc3)nnc(OCc3ccc(Cl)cc3)c12 (stereo not drawn) [Example 53, 1-(4-chlorobenzyloxy)-4-(4-chlorobenzylsulfinyl)-8-methylimidazo[1,5-d][1.2.4]triazine] | 0/10
11 | [O-][S+](Cc1ccc(Cl)cc1)c1nnc(O)c2nccn12 (stereo not drawn) [Example 31, 5-(4-chlorobenzylsulfinyl)-8-hydroxyimidazo[1,2-d][1.2.4]triazine] | 0/10

target: T1, rat mast cell chymase (Rattus norvegicus, UniProt P09650); assay: Inhibition of chymase activity (chromogenic substrate N-Suc-Ala-Ala-Pro-Phe-p-nitroanilide); format: biochemical; conditions: 10⁻⁵ M test compound
T1 construct: Chymase was partially purified from rat peritoneal cavity mast cells; from tissue; host or cells: peritoneal cavity mast cells of male Sprague Dawley rats
T1 sequence (P09650 21-260): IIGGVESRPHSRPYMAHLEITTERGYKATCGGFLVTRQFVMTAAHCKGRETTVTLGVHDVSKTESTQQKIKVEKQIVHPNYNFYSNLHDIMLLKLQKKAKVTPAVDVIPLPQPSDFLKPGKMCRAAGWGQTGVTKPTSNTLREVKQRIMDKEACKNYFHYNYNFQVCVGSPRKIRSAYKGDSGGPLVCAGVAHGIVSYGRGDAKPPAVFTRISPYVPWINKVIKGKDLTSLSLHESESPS
Protocol: Mast cells were obtained from the peritoneal cavity of male Sprague Dawley(SD) rats by the method of Graziano et al. (Methods in Enzymol., 162, 501-514, 1988), layered on 75% Percoll (Pharmacia Biotech), and then purified to over 90% purity by centrifugation at 150xG for 15 min.
Chymase was partially purified from rat peritoneal cavity mast cells by the method of Kido et al. (Arch. Biochem. Biophys., 239, 436-443, 1985). Purified mast cells were quickly frozen and thawed several times and homogenized in a low ionic strength-buffer (pH6.5). The homogenate was centrifuged at 20,000xG for 20 min. The precipitate was re-homogenized in a high ionic strength-buffer (pH8.0) and cetrifuged at 20,000xG for 20 min. The supernatant was recovered and the enzyme was extracted. From the crude extract, chymase was partially purified by an Octyl-Sepharose CL-4B (Pharmacia Biotech) hydrophobic chromatography.
Ten microliters of test compounds in dimethyl sulfoxide (DMSO) were mixed with 250 µl of 60 mM Tris-HCl buffer (pH8.0) containing 0.2 M NaCl and 250 µl of 1 µg/ml chymase in buffer. The mixtures were pre-incubated for 5 min. at 37°C . After the addition of 500 µl of 0.6 mM chromogenic substrate, N-Suc-Ala-Ala-Pro-Phe-p-nitroanilide (Sigma), the reactions were carried out for 30 min. at 37 °C , and then stopped by the addition of 50 µl of 0.75 M acetic acid. The absorbances at 405nm were measured in a spectrophotometer, and the amount of p-nitroaniline released from the substrate was measured.
Calculations of the inhibition% of chymase by test compounds were carried out as below. Inhibition% = {1-(a-a' )/(b-b' ) } x 100 (%) [formula] a; the absorbance in presence of test compound. a'; the absorbance of non-reaction in presence of test compound. b; the absorbance in absence of test compound. b'; the absorbance of non-reaction in absence of test compound.
IC₅₀ values were expressed as the concentrations (M) of test compounds producing 50% inhibition.

Row | Structure (SMILES) | Inhibition (%) of chymase at a concentration of 10⁻⁵ M
12 | CCOc1nnc([S+]([O-])CC)n2cnc(C)c12 (stereo not drawn) [Example 55, 1-ethoxy-4-ethylsulfinyl-8-methylimidazo[1,5-d][1.2.4]triazine] | 22% *
13 | CCOc1nnc([S+]([O-])CC)n2ccnc12 (stereo not drawn) [Example 46, 8-ethoxy-5-ethylsulfinylimidazo[1,2-d][1.2.4]triazine] | 5 % *
14 | CC(C)c1ccc(COc2nnc([S+]([O-])Cc3ccc(C(C)C)cc3)n3ccnc23)cc1 (stereo not drawn) [Example 38, 8-(4-isopropylbenzyloxy)-5-(4-isopropylbenzylsulfinyl) imidazo[1,2-d][1,2,4]triazine] | 41% *
15 | [O-][S+](CCCCl)c1nnc(OCCCCl)c2nccn12 (stereo not drawn) [Example 51, 8-(3-chloropropoxy)-5-(3-chloropropyl)sulfinylimidazo[1,2-d][1.2.4]triazine] | 50% *
16 | [O-][S+](Cc1ccc(C(F)(F)F)cc1)c1nnc(OCc2ccc(C(F)(F)F)cc2)c2nccn12 (stereo not drawn) [Example 42, 8-(4-trifluoromethylbenzyloxy)-5-(4-trifluoromethylbenzylsulfinyl)imidazo[1,2-d][1.2.4]triazine] | 11%*
17 | CCn1nc([S+]([O-])CC)n2cnc(C)c2c1=O (stereo not drawn) [Example 56, 2-ethyl-4-ethylsulfinyl-8-methylimidazo[1,5-d][1.2.4]triazine-1(2H)-one] | 8% *
18 | CCOC(=O)COc1nnc([S+]([O-])CC(=O)OCC)n2ccnc12 (stereo not drawn) [Example 52, 8-ethoxycarbonylmethyloxy-5-ethoxycarbonylmeth ylsulfinylimidazo[1,2-d][1.2.4]triazine] | 39% *
